Measured values: PMC11561238, “Discovery and binding mode of small molecule inhibitors of the apo form of human TDO2” (Scientific Reports, 2024)
Where “and” joins values, the source holds several entries; their conditions need not be identical. Equal values may be shown once. Read-outs that look alike come from different tables or passages of the source.

Legend:
human TDO2 = target: T1, human TDO2 (Homo sapiens, UniProt P48775); assay: TDO2 cellular activity assay (SW48 cells, NFK + KYN in supernatant by LCMS); type: cell-based; settings: 24 h, 200 µM Trp
T1 construct: SW48 cells, which express a high level of endogenous TDO2; endogenous in cells; host or cells: SW48 cells (ATCC CCL-231)
T1 sequence (P48775 whole entry): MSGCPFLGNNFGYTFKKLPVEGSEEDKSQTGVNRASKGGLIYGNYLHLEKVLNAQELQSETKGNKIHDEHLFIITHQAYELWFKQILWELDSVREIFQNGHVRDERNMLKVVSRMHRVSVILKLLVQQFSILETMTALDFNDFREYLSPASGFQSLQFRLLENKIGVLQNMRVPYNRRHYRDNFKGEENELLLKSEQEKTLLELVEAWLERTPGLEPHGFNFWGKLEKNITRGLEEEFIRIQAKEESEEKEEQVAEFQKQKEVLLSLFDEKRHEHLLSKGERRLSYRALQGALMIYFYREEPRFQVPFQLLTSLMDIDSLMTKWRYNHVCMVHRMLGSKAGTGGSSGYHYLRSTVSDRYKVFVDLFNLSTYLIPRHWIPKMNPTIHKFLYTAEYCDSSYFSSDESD
Experimental: (§1) The inhibitor compound 1 (Cpd-1) (IUPAC name ethyl 9-(3-(2-propylphenyl)-1-(1-phenylethyl)ureido)-2-methoxy-4-oxo-6,7,8,9-tetrahydro-4H-pyrido[1,2-a]pyrimidine-3-carboxylate) was identified as a hit in a high throughput screening campaign of a diverse set of 244,625 compounds in a human TDO2 cellular assay utilizing SW48 cells, which express a high level of endogenous TDO2. TDO2 activity was assessed by measuring the accumulation of the TDO2 product NFK and downstream product KYN in the supernatant. The potent inhibitor compound 2 (Cpd-2) (IUPAC name ethyl 9-(3-(2-isopropylphenyl)-1-((S)-1-phenylethyl)ureido)-2-methoxy-4-oxo-6,7,8,9-tetrahydro-4H-pyrido[1,2-a]pyrimidine-3-carboxylate) was identified during initial structure activity relationship studies of Cpd-1 analogs.
SW48 cells (source: American Type Culture Collection (ATCC), CCL-231) were used to measure the TDO2 inhibitory activity of compounds and were routinely maintained in DMEM high glucose/GlutaMAX^TM/pyruvate (Gibco, 10569010) 90% (v/v), FCS (Gibco, 10500, heat inactivated)10% (v/v), Penicillin/streptomycin (Gibco, 15140) 1% (v/v). […]
The 384 deep well plate containing 3 µl supernatant and 25 µl H2O per well were further processed for LCMS. […] NFK and kynurenine were quantified by LCMS, normalized to the internal standard Trp-(indole-d5) and the sum was calculated. […]

SW48 cells = assay: SW48 cell viability assay (CellTiter-Glo); type: cell-based; settings: Homo sapiens
Experimental: as §1
As inhibition of NFK and KYN production can simply be an effect of cytotoxicity, a viability assay (CellTiter-Glo 2.0 Luminescent Cell Viability Assay, Promega Catalog # G9243) was performed in parallel. CellTiter-Glo reagent was added (25 µl/well) to SW48 cell plates, incubated for 15 min at room temperature in the dark and luminescence was measured with the EnVision Multilabel Reader from Perkin Elmer according to the manufacturer’s instructions. […] For each compound concentration the percentage of activity compared to 0% and 100% effect was calculated as average ± STDEV (each concentration measured in duplicate). […]

apo-TDO2 = target: T2, apo-TDO2 (Homo sapiens, UniProt P48775); assay: Differential scanning fluorimetry (thermal shift) of apo-TDO2; type: binding; settings: for Δ Tm Boltzmann / Δ Tm Derivative: 25 µM; for Δ Tm Boltzmann / Δ Tm Derivative / Tm Boltzmann / Tm Derivative: in °C
T2 construct: a longer construct (His6-aa19-406, with aa406 corresponding to the wild type C-terminal residue), which was used for DSF and other experiments; made in house; host or cells: E. coli RP523 (hemB mutant, unable to synthesize heme)
T2 sequence (P48775 19-406): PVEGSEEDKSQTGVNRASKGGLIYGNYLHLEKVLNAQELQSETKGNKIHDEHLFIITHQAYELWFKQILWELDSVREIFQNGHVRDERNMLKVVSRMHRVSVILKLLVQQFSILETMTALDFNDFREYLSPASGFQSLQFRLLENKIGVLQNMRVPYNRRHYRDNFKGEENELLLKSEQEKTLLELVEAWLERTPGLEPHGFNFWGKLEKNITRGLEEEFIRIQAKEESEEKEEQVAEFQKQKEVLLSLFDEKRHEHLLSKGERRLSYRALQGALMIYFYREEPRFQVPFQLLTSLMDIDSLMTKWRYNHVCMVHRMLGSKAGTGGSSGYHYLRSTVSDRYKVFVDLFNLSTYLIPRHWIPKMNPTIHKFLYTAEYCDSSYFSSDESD
Experimental: […] S5 online).
Protein thermal stability and small molecule ligand binding of TDO2 in vitro was studied using differential scanning fluorimetry (DSF, also known as thermal shift assay)[34]. Assay ingredients and ligands were combined to obtain a mixture composed of 10 µM TDO2 and 10x SYPRO Orange, in assay buffer (50 mM HEPES-NaOH pH 8.0, 200 mM NaCl, 2 mM TCEP, 10% glycerol) and 2% final DMSO concentration. Small molecule chemical ligands were taken from DMSO stock solution (100 mM, 10 mM) and diluted in DMSO transferred to wells of PCR Plates (Micro Amp Fast 96-well Reaction Plates, Applied Biosystems) to ensure matching final DMSO concentrations.
DSF was carried out with a StepOnePlus™ real time PCR system. Thermal denaturation of TDO2 was monitored with a ramp rate of 1 K/min. Protein melting curves were evaluated using the Thermal Shift Software v 1.3. (Thermo Fisher Scientific) to derive differences in midpoint melting-temperatures (derivative model). The thermal shift (DTm) is documented as the difference between the reference midpoint melting temperature of proteins (containing 500 µM AMT) in the presence of the ligand vehicle (DMSO) and in the presence of ligand.
Supplementary Table S2. Differential scanning fluorimetry data corresponding to supplementary figure S4. The experiments were carried out in quadruplicate, or in triplicate where single outlier values (highlighted in bold italics) were excluded from calculation of the melting curves. AMT was added at a concentration of 500 µM; […] and […] were added at a concentration of 25 µM.

[1] = 25 µM compound with 500 µM AMT, compared to 59.2 °C in the absence of inhibitor, read-out: increase of the melting temperature of apo-TDO2
[2] = apo-TDO2 + 25 µM compound, no AMT, shift vs apo, single replicates
[3] = apo-TDO2 + 25 µM compound, no AMT, shift vs apo, single replicates, read-out: Δ Tm Boltzmann
[4] = apo-TDO2 + 25 µM compound, no AMT, shift vs apo, single replicates, read-out: Δ Tm Derivative
[5] = apo-TDO2 + 25 µM compound, no AMT, single replicates

SMILES | IC50 (human TDO2) [nM] | IC50 (SW48 cells) [nM] | ΔTm at 25 µM (apo-TDO2; [1]) [°C] | Δ Tm Boltzmann (apo-TDO2; [2]) | Δ Tm Derivative (apo-TDO2; [2]) | ΔTm at 25 µM (apo-TDO2; [3]) [°C] | ΔTm at 25 µM (apo-TDO2; [4]) [°C] | Tm Boltzmann (apo-TDO2; [5]) | Tm Derivative (apo-TDO2; [5])
CCOC(=O)c1c(OC)nc2n(c1=O)CCCC2N(C(=O)Nc1ccccc1C(C)C)[C@@H](C)c1ccccc1 (mixture of isomers) [Cpd-2, ethyl 9-(3-(2-isopropylphenyl)-1-((S)-1-phenylethyl)ureido)-2-methoxy-4-oxo-6,7,8,9-tetrahydro-4H-pyrido[1,2-a]pyrimidine-3-carboxylate] | 14.8 | > 10000 | 14.5 | 21.65 and 21.58 and 21.17 | 21.51 and 21.53 and 21.2 | 21.4 | 21.5 | 70.45 | 70.37 and 70.39 and 70.41 and 70.08
CCCc1ccccc1NC(=O)N(C(C)c1ccccc1)C1CCCn2c1nc(OC)c(C(=O)OCC)c2=O (stereo not drawn) [Cpd-1, ethyl 9-(3-(2-propylphenyl)-1-(1-phenylethyl)ureido)-2-methoxy-4-oxo-6,7,8,9-tetrahydro-4H-pyrido[1,2-a]pyrimidine-3-carboxylate] | 327 | > 10000 | 11.2 | 11.41 and 11.37 and 11.43 | 7.28 and 6.95 and 6.97 | 10.3 | 6.57 | 59.1 and 60.21 and 60.17 and 60.23 | 55.45 and 56.16 and 55.84 and 55.85
